How the values were obtained:
TatD825 = molecular target: T1, TatD825 (Trueperella pyogenes, UniProt A0ABV3NC31); assay: SPR (Biacore T200, NTA chip, […] binding model); DNase gel assay with Mg2+ also shows inhibition
T1 construct: gene V3M73_06995; His-TatD 825 recombinant protein expressed in E. coli BL21 (DE3)

TatD960 = molecular target: T2, TatD960 (Trueperella pyogenes, UniProt A0ABV3N8R6); assay: as above
T2 construct: gene V3M73_00540; His-TatD 960 recombinant protein expressed in E. coli BL21 (DE3)

O=c1cc(-c2ccc(O)c(O)c2)oc2cc(O)cc(O)c12 [luteolin, 3′,4′,5,7-tetrahydroxyflavone]
Kd (TatD825): 5.65 µM
Kd (TatD960): 6.27 µM

Reference: paper PMC9369154, “Molecular Basis for Luteolin as a Natural TatD DNase Inhibitor in Trueperella pyogenes” (International Journal of Molecular Sciences, 2022)
